The NIST ThermoML archive (doi:10.1021/je7003758)

Assay: xn = mol fraction of the nth substance listed
Details: 298.15 K, Liquid

CCCCCCCCCl [1-chlorooctane] + CN1CCCC1=O
mass density [kg/m3]
Details	x2 = 0.0969	x2 = 0.2014	x2 = 0.3097	x2 = 0.4076	x2 = 0.5021	x2 = 0.6022	x2 = 0.7005	x2 = 0.8007	x2 = 0.9008
100 kPa	878	888.8	901.2	913.6	926.9	942.5	959.8	979.6	1002.2
500 kPa	878.3	889.1	901.5	913.9	927.2	942.8	960	979.8	1002.4
1000 kPa	878.6	889.4	901.9	914.3	927.5	943.1	960.3	980.1	1002.7
1500 kPa	879	889.8	902.3	914.6	927.8	943.4	960.6	980.4	1003
2000 kPa	879.4	890.2	902.5	914.9	928.2	943.7	960.9	980.7	1003.2
2500 kPa	879.7	890.6	902.9	915.2	928.5	944.1	961.2	981	1003.5
2900 kPa	–	–	–	–	–	944.4	–	–	–
3000 kPa	880.2	890.9	903.3	915.6	928.8	–	961.6	981.3	1003.8
3400 kPa	880.5	–	–	–	–	–	–	–	–
3500 kPa	–	891.3	903.7	916	929.1	944.7	961.8	981.6	1004.1
4000 kPa	880.8	891.6	904	916.3	929.5	945	962.2	981.9	1004.4
4400 kPa	–	–	–	916.6	–	–	–	–	–
4500 kPa	881.2	892	904.4	–	929.8	945.3	962.4	982.2	1004.6
5000 kPa	881.6	892.3	904.7	917	930.2	945.7	962.8	982.5	1004.9
5500 kPa	882	892.7	905	917.3	930.4	946	963.1	982.8	1005.2
5900 kPa	–	–	–	–	930.8	–	–	–	–
6000 kPa	882.3	893.1	905.4	917.6	–	946.3	963.4	983.1	1005.5
6500 kPa	882.7	893.4	905.8	917.9	931.1	946.6	963.7	983.3	1005.8
7000 kPa	883.1	893.8	906.1	918.4	931.5	946.9	964	983.6	1006.1
7400 kPa	883.4	–	–	–	–	–	–	–	–
7500 kPa	–	894.1	906.4	918.6	931.8	947.2	964.3	983.9	1006.4
7900 kPa	883.7	–	–	–	–	–	–	–	–
8000 kPa	–	894.4	906.7	918.9	932.1	947.5	964.6	984.2	1006.6
8500 kPa	884.1	894.8	907	919.2	932.5	947.8	964.9	984.5	1007
9000 kPa	884.4	895.1	907.4	919.6	932.8	948.1	965.2	984.8	1007.2
9500 kPa	884.8	895.5	907.8	920	933.1	948.4	965.5	985.1	1007.5
9900 kPa	–	–	–	–	–	–	–	985.4	–
10000 kPa	885.3	895.9	908.1	920.4	933.5	948.8	965.9	–	1007.8
10400 kPa	–	–	–	–	–	–	–	–	1008
10500 kPa	885.6	896.2	908.5	920.7	933.8	949.1	966.1	985.7	–
10900 kPa	–	–	–	–	–	–	–	986	–
11000 kPa	886	896.5	908.8	921.1	934.2	949.5	966.5	–	1008.3
11400 kPa	–	–	–	–	–	–	966.7	–	–
11500 kPa	886.3	896.9	909.1	921.3	934.5	949.7	–	986.3	1008.6
11900 kPa	886.6	–	–	–	–	–	–	–	–
12000 kPa	–	897.3	909.5	921.6	934.8	950.1	967	986.5	1008.8
12500 kPa	887	897.6	909.8	922	935.1	950.4	967.3	986.8	1009.2
12900 kPa	–	–	–	–	–	950.6	–	–	–
13000 kPa	887.4	897.9	910.1	922.3	935.4	–	967.6	987.1	1009.4
13500 kPa	887.7	898.3	910.4	922.6	935.7	950.9	967.9	987.4	1009.7
13900 kPa	–	898.5	–	–	–	–	–	–	–
14000 kPa	888.1	–	910.8	922.9	936	951.2	968.2	987.7	1009.9
14400 kPa	–	898.9	–	–	–	–	–	–	–
14500 kPa	888.4	–	911.1	923.3	936.3	951.5	968.4	–	1010.1
14600 kPa	–	–	–	–	–	–	–	988	–
14900 kPa	–	–	–	–	–	–	–	–	1010.4
15000 kPa	888.7	899.2	911.4	923.5	936.6	951.8	968.8	988.2	–
15400 kPa	–	899.5	–	–	–	–	–	–	–
15500 kPa	889	–	911.7	923.9	936.9	952.1	969	988.4	1010.7
15900 kPa	–	–	–	–	937.2	–	969.3	–	–
16000 kPa	889.4	899.9	912.1	924.2	–	952.4	–	988.7	1011
16500 kPa	889.7	900.3	912.4	924.5	937.5	952.7	969.6	988.9	1011.2
17000 kPa	–	900.6	912.8	924.9	937.8	953	970	989.2	1011.5
17100 kPa	890.1	–	–	–	–	–	–	–	–
17500 kPa	890.4	900.9	913.1	925.2	938.1	953.2	970.2	989.5	1011.7
18000 kPa	890.7	901.2	913.4	925.5	938.4	953.5	970.4	989.7	1012
18500 kPa	891.1	901.5	913.7	925.7	938.7	953.8	970.8	990	1012.2
19000 kPa	891.4	901.9	914.1	926.1	939.1	954.2	971	990.5	1012.5
19400 kPa	–	902.2	–	926.4	–	–	971.4	–	–
19500 kPa	891.7	–	914.4	–	939.3	954.5	–	990.7	1012.8
20000 kPa	892.1	902.6	914.7	–	939.8	954.8	971.7	–	1013.2
20100 kPa	–	–	–	926.8	–	–	–	991	–
